Assays:
[1] = target: T1, FcMBL (Homo sapiens, UniProt P11226); experiment: FcMBL ELISA capture in blood: background and haemocyte binding (FIGS. 3A-3B); settings: for background of the FcMBL ELISA: ligand added to FcMBL prior to the capture of mannan in the presence of blood
Description: FIGS. 3A-3B are data graphs showing effects of adding a blocking agent (e.g., ˜10 mM glucose) on binding of a target entity (e.g., LPS) or an interfering agent (e.g., haemocytes) to a target-binding agent (e.g., FcMBL beads) in donor blood.
(§1) Without wishing to be bound by theory, this reduced background can be related to the prevention of FcMBL low affinity binding to erythrocytes (or other endogenous components in blood) by the medium affinity sugar that in turn can be displaced by the higher affinity targets such as mannan, lipopolysaccharides (LPS), and/or a microbe or fragment thereof.

[2] = target: T1, FcMBL; experiment: Binding affinity (Kd) of medium affinity ligands for FcMBL; settings: read-out: Kd (medium affinity ligand of FcMBL)
Description: as §1

T1 sequence (P11226 with tags, fused parts or gaps limits assumed): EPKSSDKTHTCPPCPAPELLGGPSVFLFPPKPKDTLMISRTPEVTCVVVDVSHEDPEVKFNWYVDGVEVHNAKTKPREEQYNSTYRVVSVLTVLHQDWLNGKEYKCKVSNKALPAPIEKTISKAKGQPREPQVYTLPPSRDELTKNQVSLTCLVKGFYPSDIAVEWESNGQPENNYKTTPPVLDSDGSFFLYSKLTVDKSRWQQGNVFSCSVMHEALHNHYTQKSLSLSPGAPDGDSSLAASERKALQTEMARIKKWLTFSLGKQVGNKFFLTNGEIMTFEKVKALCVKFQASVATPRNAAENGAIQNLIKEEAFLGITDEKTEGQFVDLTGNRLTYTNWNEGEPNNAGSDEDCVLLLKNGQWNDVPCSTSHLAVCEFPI

| background of the FcMBL ELISA [1] | Kd [2] [mM] | background by binding of erythrocytes or other endogenous blood components to FcMBL ([1]; addition of a small amount of mannan) | Compound |
| --- | --- | --- | --- |
| decreases the background | 15 |  | OC[C@H]1O[C@H](O[C@H]2[C@H](O)[C@@H](O)C(O)O[C@@H]2CO)[C@H](O)[C@@H](O)[C@@H]1O (mixture of isomers) [maltose] |
| decreases the background | 17 |  | CC(=O)N[C@H]1C(O)O[C@H](CO)[C@@H](O)[C@@H]1O[C@H](C)C(=O)O (some centres unmarked) [N-acetyl Muramic acid] |
|  |  | decrease the background | mannan |

— patent US10551379B2, “Methods and compositions for improving detection and/or capture of a target entity” (PRESIDENT AND FELLOWS OF HARVARD COLLEGE, priority 2013, dated 2020)
